For 32 compounds, IC50 results are on record in US20050245563A1 (Millennium Pharmaceuticals, Inc., priority 2003, published 2005).

Structures can show the parent of a compound that is named as a salt.

The first test has as its target T1, human Chk1 (GST-Chk1) (Homo sapiens, UniProt O14757).
T1 construct: made in house; host or cells: insect cells (baculovirus, Bac-to-Bac)
T1 sequence (O14757 1-476): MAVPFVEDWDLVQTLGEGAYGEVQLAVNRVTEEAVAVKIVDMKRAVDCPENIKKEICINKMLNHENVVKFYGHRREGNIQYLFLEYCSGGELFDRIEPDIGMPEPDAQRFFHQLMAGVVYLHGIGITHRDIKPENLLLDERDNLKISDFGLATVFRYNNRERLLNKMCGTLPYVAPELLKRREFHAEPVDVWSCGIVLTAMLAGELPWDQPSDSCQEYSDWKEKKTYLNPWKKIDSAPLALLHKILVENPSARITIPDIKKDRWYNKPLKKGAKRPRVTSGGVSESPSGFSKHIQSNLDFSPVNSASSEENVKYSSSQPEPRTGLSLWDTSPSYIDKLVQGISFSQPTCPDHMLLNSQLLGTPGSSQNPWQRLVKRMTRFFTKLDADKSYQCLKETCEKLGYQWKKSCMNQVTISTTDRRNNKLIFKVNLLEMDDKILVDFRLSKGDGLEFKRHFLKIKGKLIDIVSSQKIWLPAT
In words: Chk1 DELFIA kinase assay (2 nM GST-Chk1, 600 μM ATP). It is filed as biochemical. The note with it: Biotin-GLYRSPSMPEN-amide substrate. The method in brief:
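Enzyme is N-terminal GST-Chk1 from baculovirus/insect cells, assayed with 1 μM biotin-GLYRSPSMPEN-amide in pH 7.5 Tris buffer, 4% DMSO and 10 mM MgCl2 for 50 min at room temperature. EDTA-stopped reactions were captured on NeutrAvidin. Phospho-peptide was detected by anti-phospho-Ser216-Cdc25c antibody with europium-labeled secondary and time-resolved fluorescence.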
As to `Cc1[nH]nc2c1c(=O)n(CCCN)c1ccc(CCc3cccnc3)cc21` [Example 353, 5-(3-Amino-propyl)-3-methyl-8-(2-pyridin-3-yl-ethyl)-2,5-dihydro-pyrazolo[4,3-c]quinolin-4-one], the concentration for half-maximal inhibition (IC50) is less than 1000 nM.

For the compound `COCCc1[nH]nc2c1c(=O)n(CCCN)c1ccc(C)cc21` [Example 354, 5-(3-Amino-propyl)-3-(2-methoxy-ethyl)-8-methyl-2,5-dihydro-pyrazolo[4,3-c]quinolin-4-one], the half-inhibitory concentration (IC50) is less than 1000 nM.

Consider `NCCCn1c(=O)c2c(CCOCc3ccccc3)[nH]nc2c2cc(Cl)ccc21` [Example 362, 5-(3-Amino-propyl)-3-(2-benzyloxy-ethyl)-8-chloro-2,5-dihydro-pyrazolo[4,3-c]quinolin-4-one], for which the IC50 is less than 1000 nM. `CCc1ccc2c(c1)c1n[nH]c(CCO)c1c(=O)n2CCCO` [Example 363, 8-Ethyl-3-(2-hydroxy-ethyl)-5-(3-hydroxy-propyl)-2,5-dihydro-pyrazolo[4,3-c]quinolin-4-one] had an IC50 of less than 1000 nM.

On to `CCCc1[nH]nc2c1c(=O)n(CCCN)c1ccc(Cl)cc21` [Example 364, 5-(3-Amino-propyl)-8-chloro-3-propyl-2,5-dihydro-pyrazolo[4,3-c]quinolin-4-one], for which the IC50 is less than 1000 nM. `NCCCn1c(=O)c2c(C3CCCC3)[nH]nc2c2cc(Cl)ccc21` [Example 365, 5-(3-Amino-propyl)-8-chloro-3-cyclopentyl-2,5-dihydro-pyrazolo[4,3-c]quinolin4-one] came in with an IC50 of less than 1000 nM. Same read-out and setting: as for `Cc1[nH]nc2c1c(=O)n(CCCN)c1cc(C(=O)NCCc3cccnc3)ccc21` [Example 366, 5-(3-Amino-propyl)-3-methyl-4-oxo-4,5-dihydro-2H-pyrazolo[4,3-c]quinoline-7-carboxylic acid (2-pyridin-3-yl-ethyl)-amide], the figure is less than 1000 nM; as for `Cc1[nH]nc2c1c(=O)n(C)c1c(CCCO)cc(Cl)cc21` [Example 367, 8-Chloro-6-(3-hydroxy-propyl)-3,5-dimethyl-2,5-dihydro-pyrazolo[4,3-c]quinolin-4-one], less than 1000 nM; as for `CCN(CC)CCC(=O)Nc1ccc2c(c1)c1n[nH]c(C)c1c(=O)n2CCCN` [Example 368, N-[5-(3-Amino-propyl)-3-methyl-4-oxo-4,5-dihydro-2H-pyrazolo[4,3-c]quinolin-8-yl]-3-diethylamino-propionamide], less than 1000 nM. In turn, `Cc1[nH]nc2c1c(=O)n(CCCN)c1ccc(NC(=O)CCN3CCCCC3)cc21` [Example 369, N-[5-(3-Amino-propyl)-3-methyl4-oxo-4,5-dihydro-2H-pyrazolo[4,3-c]quinolin-8-yl]-3-piperidin-1-yl-propionamide] displayed a concentration for half-maximal inhibition (IC50) of less than 1000 nM.

The target in another test is T1, human Chk1 (GST-Chk1). In words: Chk1 FlashPlate kinase assay. It is filed as biochemical. The note with it: 8.7 nM GST-Chk1, 1 uM ATP, 33P incorporation into peptide substrate. The method, then:
Recombinant human Chk1 was expressed as a fusion protein with glutathione S-transferase at the amino-terminus (GST-Chk1) using standard baculovirus vectors and (Bac-to-Bac®) insect cell expression system purchased from GIBCO™ Invitrogen. Recombinant protein expressed in insect cells was purified using glutathione sepharose (Amersham Biotech) using standard procedures described by the manufacturer.
Chk1 FlashPlate® Kinase Assay:
Assays (25 μL) contained 8.7 nM GST-Chk1, 10 mM MES, 0.1 mM ethylene glycol-bis(β-aminoethylether)-N,N,N′,N′-tetracetic acid (EGTA, pH 8.0), 2 mM DTT, 0.05% Tween 20, 3 uM peptide substrate (Biotin-ILSRRPSYRKILND-free acid) (SEQ ID NO: 1), 1 uM ATP, 0.4 uCi ^33P-γ-ATP (NEN), 4% DMSO. Reactions were incubated for 30 minutes at room temperature, terminated with 50 μL of 50 mM EDTA and 90 μL were transferred to streptavidin-coated FlashPlates® (NEN) and incubated for 1 hour at room temperature. Plates were washed with phosphate buffered salaine containing 0.01% Tween-20 and 10 mM sodium pyrophosphate. Plates were dried, sealed with Topseal™ (NEN) and amount of ^33P incorporated into the peptide substate measure using a Packard Topcount® NXT™ scintillation counter with standard settings.
Take `Cc1n[nH]c2c1c(=O)n(CCNC(=O)OC(C)(C)C)c1ccccc21` [Example 1, [2-(3-Methyl-4-oxo-1,4-dihydro-pyrazolo[4,3-c]quinolin-5-yl)-ethyl]-carbamic acid tert-butyl ester]: the IC50 was 1000 to 20000 nM. Same read-out and setting: as for `Cc1n[nH]c2c1c(=O)n(Cc1cccnc1)c1ccccc21` [Example 2, 3-Methyl-5-pyridin-3-ylmethyl-1,5-dihydro-pyrazolo[4,3-c]quinolin-4-one], the figure is 1000 to 20000 nM; as for `CC(=O)OCCn1c(=O)c2c(C)n[nH]c2c2ccccc21` [Example 3, Acetic acid 2-(3-methyl-4-oxo-1,4-dihydro-pyrazolo[4,3-c]quinolin-5-yl)-ethyl ester], 1000 to 20000 nM. On the same count and under the same terms, as for `Cc1n[nH]c2c1c(=O)n(CCNCc1ccccc1)c1ccccc21` [Example 4, 5-(2-Benzylamino-ethyl)-3-methyl-1,5-dihydro-pyrazolo[4,3-c]quinolin-4-one], the figure is less than 1000 nM. Compound `Cc1n[nH]c2c1c(=O)n(CCCNCc1ccccc1)c1ccccc21` [Example 5, 5-(3-Benzylamino-propyl)-3-methyl-1,5-dihydro-pyrazolo[4,3-c]quinolin-4-one] registered an IC50 of less than 1000 nM. Still for that read-out and setting: with `Cc1n[nH]c2c1c(=O)n(CCCNC(=O)OC(C)(C)C)c1ccccc21` [Example 6, [3-(3-Methyl-4-oxo-1,4-dihydro-pyrazolo[4,3-c]quinolin-5-yl)-propyl]-carbamic acid tert-butyl ester] the figure was less than 1000 nM. Same read-out and setting: as for `Cc1n[nH]c2c1c(=O)n(CCN(C)C)c1ccccc21` [Example 7, 5-(2-Dimethylamino-ethyl)-3-methyl-1,5-dihydro-pyrazolo[4,3-c]quinolin-4-one hydrochloride], the figure is 1000 to 20000 nM; as for `Cc1n[nH]c2c1c(=O)n(CCN1CCOCC1)c1ccccc21` [Example 8, 3-Methyl-5-(2-morpholin-4-yl-ethyl)-1,5-dihydro-pyrazolo[4,3-c]quinolin-4-one], 1000 to 20000 nM; as for `Cc1n[nH]c2c1c(=O)n(CCCN1CCc3ccccc3C1)c1ccccc21` [Example 9, 5-[3-(3,4-Dihydro-1H-isoquinolin-2-yl)-propyl]-3-methyl-1,5-dihydro-pyrazolo[4,3-c]quinolin-4-one], less than 1000 nM. `Cc1n[nH]c2c1c(=O)n(CCO)c1ccccc21` [Example 10, 5-(2-Hydroxy-ethyl)-3-methyl-1,5-dihydro-pyrazolo[4,3-c]quinolin-4-one] showed an IC50 of less than 1000 nM. On the same count and under the same terms, as for `Cc1n[nH]c2c1c(=O)n(CCN)c1ccccc21` [Example 11, 5-(2-Amino-ethyl)-3-methyl-1,5-dihydro-pyrazolo[4,3-c]quinolin-4-one], the figure is less than 1000 nM; as for `Cc1n[nH]c2c1c(=O)n(CCCOCc1ccccc1)c1ccccc21` [Example 12, 5-(3-Benzyloxy-propyl)-3-methyl-1,5-dihydro-pyrazolo[4,3-c]quinolin-4-one], less than 1000 nM.

Compound `Cc1n[nH]c2c1c(=O)n(CCCNC(=O)OCc1ccccc1)c1ccccc21` [Example 13, [3-(3-Methyl-4-oxo-1,4-dihydro-pyrazolo[4,3-c]quinolin-5-yl)-propyl]-carbamic acid benzyl ester] returned a half-inhibitory concentration (IC50) of less than 1000 nM.

Consider `Cc1n[nH]c2c1c(=O)n(CCCO)c1ccccc21` [Example 14, 5-(3-Hydroxy-propyl)-3-methyl-1,5-dihydro-pyrazolo[4,3-c]quinolin-4-one], for which the IC50 is less than 1000 nM. On the same count and under the same terms, with `Cc1n[nH]c2c1c(=O)n(CCCN)c1ccccc21` [Example 15, 5-(3-Amino-propyl)-3-methyl-1,5-dihydro-pyrazolo[4,3-c]quinolin-4-one] the figure was less than 1000 nM; with `Cc1[nH]nc2c1c(=O)n(CCCN(C)C)c1ccc(Cl)cc21` [Example 16, 8-Chloro-5-(3-dimethylamino-propyl)-3-methyl-2,5-dihydro-pyrazolo[4,3-c]quinolin-4-one], less than 1000 nM. Same read-out and setting: with `COC(=O)CCCn1c(=O)c2c(C)n[nH]c2c2cc(Br)ccc21` [Example 17, 4-(8-Bromo-3-methyl-4-oxo-1,4-dihydro-pyrazolo[4,3-c]quinolin-5-yl)-butyric acid methyl ester] the figure was less than 1000 nM; with `Cc1[nH]nc2c1c(=O)n(CCCN(C)C)c1ccc(Br)cc21` [Example 18, 8-Bromo-5-(3-dimethylamino-propyl)-3-methyl-2,5-dihydro-pyrazolo[4,3-c]quinolin-4-one], less than 1000 nM; with `Cc1n[nH]c2c1c(=O)n(CCCC(=O)O)c1ccc(Br)cc21` [Example 19, 4-(8-Bromo-3-methyl-4-oxo-1,4-dihydro-pyrazolo[4,3-c]quinolin-5-yl)-butyric acid], less than 1000 nM. Compound `Cc1[nH]nc2c1c(=O)n(CCCC#N)c1ccc(Br)cc21` [Example 20, 4-(8-Bromo-3-methyl-4-oxo-2,4-dihydro-pyrazolo[4,3-c]quinolin-5-yl)-butyronitrile] showed an IC50 of less than 1000 nM.

Turning to `Cc1n[nH]c2c1c(=O)n(CCCC(=O)N1CCN(C(=O)OC(C)(C)C)CC1)c1ccc(Br)cc21` [Example 21, 4-[4-(8-Bromo-3-methyl-4-oxo-1,4-dihydro-pyrazolo[4,3-c]quinolin-5-yl)-butyryl]-piperazine-1-carboxylic acid tert-butyl ester], the half-maximal inhibitory concentration (IC50) was less than 1000 nM. The compound `Cc1n[nH]c2c1c(=O)n(CCCC(=O)NCc1ccc(Cl)cc1)c1ccc(Br)cc21` [Example 22, 4-(8-Bromo-3-methyl-4-oxo-1,4-dihydro-pyrazolo[4,3-c]quinolin-5-yl)-N-(4-chloro-benzyl)-butyramide] yielded an IC50 of less than 1000 nM.
